Source: ChEMBL document CHEMBL4507296 (2021)

What was measured:
[1] = target: Tyrosine-protein kinase BTK (Homo sapiens) (UniProt Q06187); conditions: Compound concentration 1000.0 nM
[2] = target: Mitogen-activated protein kinase kinase kinase 13 (Homo sapiens) (UniProt O43283); conditions: Compound concentration 1000.0 nM
[3] = target: Phosphatidylinositol 5-phosphate 4-kinase type-2 gamma (Homo sapiens) (UniProt Q8TBX8); conditions: Compound concentration 1000.0 nM
[4] = tested on: Phosphatidylinositol 4,5-bisphosphate 3-kinase catalytic subunit alpha isoform (Homo sapiens), P42336 [I800L]; conditions: Compound concentration 1000.0 nM
[5] = target: Phosphatidylinositol 4-phosphate 3-kinase C2 domain-containing subunit beta (Homo sapiens) (UniProt O00750); conditions: Compound concentration 1000.0 nM
[6] = target: Protein-tyrosine kinase 2-beta (Homo sapiens) (UniProt Q14289); conditions: Compound concentration 1000.0 nM
[7] = target: Serine/threonine-protein kinase Nek6 (Homo sapiens) (UniProt Q9HC98); conditions: Compound concentration 1000.0 nM
[8] = target: Serine/threonine-protein kinase TAO2 (Homo sapiens) (UniProt Q9UL54); conditions: Compound concentration 1000.0 nM
[9] = target: Activated CDC42 kinase 1 (Homo sapiens) (UniProt Q07912); conditions: Compound concentration 1000.0 nM
Sequence of Activated CDC42 kinase 1 (Homo sapiens) (Q07912 whole entry, looked up): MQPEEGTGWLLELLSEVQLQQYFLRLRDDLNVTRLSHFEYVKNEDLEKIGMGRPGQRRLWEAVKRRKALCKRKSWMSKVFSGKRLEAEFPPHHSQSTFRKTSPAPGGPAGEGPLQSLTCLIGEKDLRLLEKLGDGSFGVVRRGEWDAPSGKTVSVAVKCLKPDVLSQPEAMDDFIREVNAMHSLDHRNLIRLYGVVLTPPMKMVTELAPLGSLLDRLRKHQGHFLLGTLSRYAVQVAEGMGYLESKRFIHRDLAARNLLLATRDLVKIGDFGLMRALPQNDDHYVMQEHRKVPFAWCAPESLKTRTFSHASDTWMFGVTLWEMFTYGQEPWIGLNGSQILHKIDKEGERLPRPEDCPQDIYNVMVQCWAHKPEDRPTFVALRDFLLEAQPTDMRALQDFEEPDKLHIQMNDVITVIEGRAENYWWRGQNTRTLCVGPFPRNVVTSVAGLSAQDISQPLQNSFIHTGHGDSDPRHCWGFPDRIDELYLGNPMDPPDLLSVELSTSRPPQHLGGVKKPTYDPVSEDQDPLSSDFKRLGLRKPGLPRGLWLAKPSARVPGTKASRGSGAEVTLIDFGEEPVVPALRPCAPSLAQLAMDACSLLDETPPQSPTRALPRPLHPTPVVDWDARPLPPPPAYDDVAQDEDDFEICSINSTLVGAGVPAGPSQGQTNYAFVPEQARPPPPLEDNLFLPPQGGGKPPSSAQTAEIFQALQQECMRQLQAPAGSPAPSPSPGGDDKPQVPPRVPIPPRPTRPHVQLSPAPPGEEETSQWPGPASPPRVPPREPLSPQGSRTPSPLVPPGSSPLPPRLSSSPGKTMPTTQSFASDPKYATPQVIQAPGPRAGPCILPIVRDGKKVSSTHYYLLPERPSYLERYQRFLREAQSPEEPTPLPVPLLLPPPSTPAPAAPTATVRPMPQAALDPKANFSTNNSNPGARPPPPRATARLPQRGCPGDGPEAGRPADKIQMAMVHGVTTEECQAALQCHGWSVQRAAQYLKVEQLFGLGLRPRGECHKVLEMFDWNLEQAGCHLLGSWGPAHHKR

[10] = target: Tyrosine-protein kinase JAK3 (Homo sapiens) (UniProt P52333); conditions: Compound concentration 1000.0 nM
Sequence of Tyrosine-protein kinase JAK3 (Homo sapiens) (P52333 whole entry): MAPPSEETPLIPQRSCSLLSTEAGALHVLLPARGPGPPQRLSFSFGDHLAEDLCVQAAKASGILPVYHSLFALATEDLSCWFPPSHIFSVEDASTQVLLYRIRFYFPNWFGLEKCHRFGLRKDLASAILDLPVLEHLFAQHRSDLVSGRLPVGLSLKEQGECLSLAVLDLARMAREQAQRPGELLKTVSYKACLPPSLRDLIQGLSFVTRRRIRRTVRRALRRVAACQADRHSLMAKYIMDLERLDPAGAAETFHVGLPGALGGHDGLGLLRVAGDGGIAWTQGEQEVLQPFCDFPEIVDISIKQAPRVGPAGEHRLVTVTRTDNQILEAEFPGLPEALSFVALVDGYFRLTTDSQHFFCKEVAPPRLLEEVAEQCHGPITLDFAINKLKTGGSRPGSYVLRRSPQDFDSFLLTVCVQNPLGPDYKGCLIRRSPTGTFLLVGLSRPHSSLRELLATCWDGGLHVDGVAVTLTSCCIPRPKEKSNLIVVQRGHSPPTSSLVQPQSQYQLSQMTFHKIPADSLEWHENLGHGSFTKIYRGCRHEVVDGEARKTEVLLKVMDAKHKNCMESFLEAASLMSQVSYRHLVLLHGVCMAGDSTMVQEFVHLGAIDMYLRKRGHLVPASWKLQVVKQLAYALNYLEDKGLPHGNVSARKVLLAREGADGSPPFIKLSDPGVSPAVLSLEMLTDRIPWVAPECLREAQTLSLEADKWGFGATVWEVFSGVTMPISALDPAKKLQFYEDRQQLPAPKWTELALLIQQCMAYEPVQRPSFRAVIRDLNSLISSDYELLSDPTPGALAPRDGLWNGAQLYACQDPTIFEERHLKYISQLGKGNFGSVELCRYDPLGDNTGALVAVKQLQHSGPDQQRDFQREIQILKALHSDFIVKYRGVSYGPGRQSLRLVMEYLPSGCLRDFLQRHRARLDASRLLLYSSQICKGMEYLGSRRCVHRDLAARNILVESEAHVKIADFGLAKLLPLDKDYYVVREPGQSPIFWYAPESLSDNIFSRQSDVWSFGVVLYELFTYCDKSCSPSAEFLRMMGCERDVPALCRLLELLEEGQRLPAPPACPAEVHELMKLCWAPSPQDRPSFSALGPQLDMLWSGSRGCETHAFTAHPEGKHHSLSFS

[11] = target: Receptor-type tyrosine-protein kinase FLT3 (Homo sapiens) (UniProt P36888); conditions: Compound concentration 1000.0 nM
[12] = target: Serine/threonine-protein kinase BRSK1 (Homo sapiens) (UniProt Q8TDC3); conditions: Compound concentration 1000.0 nM
[13] = target: Serine/threonine-protein kinase 32A (Homo sapiens) (UniProt Q8WU08); conditions: Compound concentration 1000.0 nM
[14] = target: Serine/threonine-protein kinase Nek1 (Homo sapiens) (UniProt Q96PY6); conditions: Compound concentration 1000.0 nM
[15] = target: Serine/threonine-protein kinase PAK 5 (Homo sapiens) (UniProt Q9P286); conditions: Compound concentration 1000.0 nM
Sequence of Serine/threonine-protein kinase PAK 5 (Homo sapiens) (Q9P286 whole entry, looked up): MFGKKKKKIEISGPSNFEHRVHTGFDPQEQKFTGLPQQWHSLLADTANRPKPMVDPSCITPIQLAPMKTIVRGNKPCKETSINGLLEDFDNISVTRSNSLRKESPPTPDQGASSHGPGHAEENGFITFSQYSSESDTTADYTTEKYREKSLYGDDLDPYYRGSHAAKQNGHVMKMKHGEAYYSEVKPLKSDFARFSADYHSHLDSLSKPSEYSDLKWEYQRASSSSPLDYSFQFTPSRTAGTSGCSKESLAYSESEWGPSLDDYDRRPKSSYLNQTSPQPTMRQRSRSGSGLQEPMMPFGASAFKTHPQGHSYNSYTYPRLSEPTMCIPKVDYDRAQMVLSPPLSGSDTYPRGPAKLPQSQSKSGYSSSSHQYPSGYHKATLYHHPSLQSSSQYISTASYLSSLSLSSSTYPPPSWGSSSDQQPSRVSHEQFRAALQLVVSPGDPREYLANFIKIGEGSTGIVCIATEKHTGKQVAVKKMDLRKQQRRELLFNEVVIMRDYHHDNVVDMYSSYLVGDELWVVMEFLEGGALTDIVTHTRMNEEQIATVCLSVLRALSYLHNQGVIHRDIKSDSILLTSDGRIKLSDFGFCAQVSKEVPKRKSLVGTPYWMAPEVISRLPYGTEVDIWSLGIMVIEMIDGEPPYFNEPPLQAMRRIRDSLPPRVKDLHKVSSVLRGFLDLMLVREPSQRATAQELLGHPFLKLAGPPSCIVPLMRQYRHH

[16] = target: Dual specificity mitogen-activated protein kinase kinase 4 (Homo sapiens) (UniProt P45985); conditions: Compound concentration 1000.0 nM
Sequence of Dual specificity mitogen-activated protein kinase kinase 4 (Homo sapiens) (P45985 whole entry): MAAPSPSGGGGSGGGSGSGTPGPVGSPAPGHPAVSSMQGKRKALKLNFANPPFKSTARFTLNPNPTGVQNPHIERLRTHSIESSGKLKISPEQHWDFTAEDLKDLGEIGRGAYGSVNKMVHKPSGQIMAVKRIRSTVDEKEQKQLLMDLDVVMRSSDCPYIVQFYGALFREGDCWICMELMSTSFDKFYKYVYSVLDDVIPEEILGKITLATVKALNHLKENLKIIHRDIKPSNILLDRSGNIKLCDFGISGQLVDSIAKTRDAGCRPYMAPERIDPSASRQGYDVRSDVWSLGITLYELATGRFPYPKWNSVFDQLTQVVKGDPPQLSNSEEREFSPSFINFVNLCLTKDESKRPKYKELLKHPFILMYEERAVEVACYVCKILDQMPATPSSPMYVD

[17] = target: Serine/threonine-protein kinase TNNI3K (Homo sapiens) (UniProt Q59H18); conditions: Compound concentration 1000.0 nM
[18] = target: Serine/threonine-protein kinase Nek9 (Homo sapiens) (UniProt Q8TD19); conditions: Compound concentration 1000.0 nM
[19] = target: Sigma non-opioid intracellular receptor 1 (Homo sapiens) (UniProt Q99720); conditions: Compound concentration 10.0 uM
[20] = target: Serine/threonine-protein kinase MRCK alpha (Homo sapiens) (UniProt Q5VT25); conditions: Compound concentration 1000.0 nM
[21] = target: Cyclin-dependent kinase-like 1 (Homo sapiens) (UniProt Q00532); conditions: Compound concentration 1000.0 nM
[22] = target: Serine/threonine-protein kinase pim-2 (Homo sapiens) (UniProt Q9P1W9); conditions: Compound concentration 1000.0 nM
[23] = tested on: Receptor-type tyrosine-protein kinase FLT3 (Homo sapiens), P36888 [D835H]; conditions: Compound concentration 1000.0 nM
[24] = target: Mitogen-activated protein kinase kinase kinase 4 (Homo sapiens) (UniProt Q9Y6R4); conditions: Compound concentration 1000.0 nM
[25] = target: Serine/threonine-protein kinase 17A (Homo sapiens) (UniProt Q9UEE5); conditions: Compound concentration 1000.0 nM
[26] = target: MAP kinase-interacting serine/threonine-protein kinase 2 (Homo sapiens) (UniProt Q9HBH9); conditions: Compound concentration 1000.0 nM
[27] = target: Rho-associated protein kinase 2 (Homo sapiens) (UniProt O75116); conditions: Compound concentration 1000.0 nM
[28] = target: Delta-type opioid receptor (Homo sapiens) (UniProt P41143); conditions: Compound concentration 10.0 uM
[29] = target: Mast/stem cell growth factor receptor Kit (Homo sapiens) (UniProt P10721); conditions: Compound concentration 1000.0 nM
Sequence of Mast/stem cell growth factor receptor Kit (Homo sapiens) (P10721 whole entry): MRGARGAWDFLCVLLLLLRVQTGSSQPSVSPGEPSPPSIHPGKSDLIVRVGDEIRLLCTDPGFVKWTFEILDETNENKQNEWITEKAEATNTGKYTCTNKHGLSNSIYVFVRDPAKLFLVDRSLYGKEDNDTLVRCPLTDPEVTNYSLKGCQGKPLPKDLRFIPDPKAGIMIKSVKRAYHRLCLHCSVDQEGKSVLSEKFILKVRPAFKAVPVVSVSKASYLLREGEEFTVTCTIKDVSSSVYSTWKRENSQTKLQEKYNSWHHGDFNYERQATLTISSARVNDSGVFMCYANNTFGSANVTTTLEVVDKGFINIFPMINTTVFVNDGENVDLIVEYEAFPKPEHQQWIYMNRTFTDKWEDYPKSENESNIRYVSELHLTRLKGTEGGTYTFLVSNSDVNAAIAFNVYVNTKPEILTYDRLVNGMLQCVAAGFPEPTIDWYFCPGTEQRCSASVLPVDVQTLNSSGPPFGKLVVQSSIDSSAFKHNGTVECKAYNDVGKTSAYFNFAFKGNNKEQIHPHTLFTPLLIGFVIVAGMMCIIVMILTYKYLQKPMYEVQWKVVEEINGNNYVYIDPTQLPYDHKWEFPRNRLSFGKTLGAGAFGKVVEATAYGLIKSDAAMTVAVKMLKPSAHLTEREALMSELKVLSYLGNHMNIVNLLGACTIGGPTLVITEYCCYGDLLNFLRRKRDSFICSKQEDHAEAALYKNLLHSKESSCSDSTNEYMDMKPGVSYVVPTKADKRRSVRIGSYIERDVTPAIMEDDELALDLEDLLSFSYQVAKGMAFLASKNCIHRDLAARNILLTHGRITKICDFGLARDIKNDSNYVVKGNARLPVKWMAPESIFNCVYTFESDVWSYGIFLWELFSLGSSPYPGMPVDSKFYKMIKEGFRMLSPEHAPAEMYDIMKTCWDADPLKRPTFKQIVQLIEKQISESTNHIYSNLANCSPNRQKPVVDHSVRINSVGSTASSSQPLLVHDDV

[30] = target: Cyclin-dependent kinase 15 (Homo sapiens) (UniProt Q96Q40); conditions: Compound concentration 1000.0 nM
[31] = target: Mitogen-activated protein kinase kinase kinase 6 (Homo sapiens) (UniProt O95382); conditions: Compound concentration 1000.0 nM
[32] = target: Mast/stem cell growth factor receptor Kit (Homo sapiens) (UniProt P10721); conditions: Compound concentration 1000.0 nM; remark: listed apart in the source
[33] = GPCRScan assay: inhibition of GABA/PBR; design: species or system Rattus norvegicus; radioligand conc. used [nm] 0.3 – 2.0, parental cells brain tissue
[34] = target: Serine/threonine-protein kinase 36 (Homo sapiens) (UniProt Q9NRP7); conditions: Compound concentration 1000.0 nM
[35] = target: Mu-type opioid receptor (Homo sapiens) (UniProt P35372); conditions: Compound concentration 10.0 uM
[36] = target: 5-hydroxytryptamine receptor 1B (Homo sapiens) (UniProt P28222); conditions: Compound concentration 10.0 uM
[37] = target: Epidermal growth factor receptor (Homo sapiens) (UniProt P00533); conditions: Compound concentration 1000.0 nM
[38] = target: D(1B) dopamine receptor (Homo sapiens) (UniProt P21918); conditions: Compound concentration 10.0 uM
[39] = target: Cyclin-dependent kinase 2 (Homo sapiens) (UniProt P24941); conditions: Compound concentration 1000.0 nM
[40] = target: Tyrosine-protein kinase Mer (Homo sapiens) (UniProt Q12866); conditions: Compound concentration 1000.0 nM
[41] = target: Casein kinase I isoform delta (Homo sapiens) (UniProt P48730); conditions: Compound concentration 1000.0 nM
[42] = target: cAMP-dependent protein kinase catalytic subunit PRKX (Homo sapiens) (UniProt P51817); conditions: Compound concentration 1000.0 nM
Sequence of cAMP-dependent protein kinase catalytic subunit PRKX (Homo sapiens) (P51817 whole entry, canonical isoform): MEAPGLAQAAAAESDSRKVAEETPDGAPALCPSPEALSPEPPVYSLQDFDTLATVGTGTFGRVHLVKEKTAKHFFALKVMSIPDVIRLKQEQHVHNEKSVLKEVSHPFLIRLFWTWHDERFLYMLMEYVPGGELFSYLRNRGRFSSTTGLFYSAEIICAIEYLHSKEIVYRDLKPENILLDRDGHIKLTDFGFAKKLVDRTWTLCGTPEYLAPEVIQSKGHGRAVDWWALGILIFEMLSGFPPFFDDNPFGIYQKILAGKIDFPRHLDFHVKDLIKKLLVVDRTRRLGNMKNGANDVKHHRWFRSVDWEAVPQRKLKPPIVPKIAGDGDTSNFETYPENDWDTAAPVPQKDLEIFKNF

[43] = target: Casein kinase I isoform alpha (Homo sapiens) (UniProt P48729); conditions: Compound concentration 1000.0 nM
[44] = target: Cyclin-dependent kinase-like 3 (Homo sapiens) (UniProt Q8IVW4); conditions: Compound concentration 1000.0 nM
[45] = target: Testis-specific serine/threonine-protein kinase 1 (Homo sapiens) (UniProt Q9BXA7); conditions: Compound concentration 1000.0 nM

Sequence of Phosphatidylinositol 5-phosphate 4-kinase type-2 gamma (Homo sapiens) (Q8TBX8 whole entry, canonical isoform): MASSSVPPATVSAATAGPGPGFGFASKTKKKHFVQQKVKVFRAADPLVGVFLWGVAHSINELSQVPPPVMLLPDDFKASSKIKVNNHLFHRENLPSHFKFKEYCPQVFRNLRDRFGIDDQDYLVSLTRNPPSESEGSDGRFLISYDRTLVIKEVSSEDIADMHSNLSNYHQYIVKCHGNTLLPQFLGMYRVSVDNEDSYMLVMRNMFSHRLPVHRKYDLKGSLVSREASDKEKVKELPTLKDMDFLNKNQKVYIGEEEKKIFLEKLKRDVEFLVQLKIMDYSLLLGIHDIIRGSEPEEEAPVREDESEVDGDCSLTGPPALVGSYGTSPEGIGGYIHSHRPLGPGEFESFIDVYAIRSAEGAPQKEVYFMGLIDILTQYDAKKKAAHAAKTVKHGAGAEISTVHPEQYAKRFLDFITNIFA

Compound C[C@H](c1ccc(F)cc1)N(Cc1cccc(C(=O)O)c1)C(=O)c1cnc2ccccc2c1 [PF-05105679] has a residual activity [1] of 95%, a residual activity [2] of 75% and a residual activity [3] of 81%. It also gave a residual activity [4] of 61%, a residual activity [5] of 90% and a residual activity [6] of 100%. It also gave a residual activity [7] of 92%, a residual activity [8] of 100% and a residual activity [9] of 100%. It also gave a residual activity [10] of 100%, a residual activity [11] of 100% and a residual activity [12] of 100%. The residual activity [13] was 100%, the residual activity [14] was 100% and the residual activity [15] was 93%. The residual activity [16] was 100%, the residual activity [17] was 97% and the residual activity [18] was 100%. It also gave an inhibition [19] of 16%, a residual activity [20] of 100% and a residual activity [21] of 100%. For the same compound, the residual activity [22] was 100%, the residual activity [23] was 84% and the residual activity [24] was 100%. The residual activity [25] was 86%, the residual activity [26] was 74% and the residual activity [27] was 100%. For the same compound, the inhibition [28] was -1.72%, the residual activity [29] was 100% and the residual activity [30] was 100%. For the same compound, the residual activity [31] was 84%, the residual activity [32] was 100% and the Ki [33] was 1020 nM. It also gave a pKi [33] of 5.99, a residual activity [34] of 100% and an inhibition [35] of 1.23%. The inhibition [36] was 4.38%, the residual activity [37] was 100% and the inhibition [38] was -1.69%. For the same compound, the residual activity [39] was 100%, the residual activity [40] was 95% and the residual activity [41] was 92%. For the same compound, the residual activity [42] was 100%, the residual activity [43] was 100% and the residual activity [44] was 64%. It also gave a residual activity [45] of 91%.
